Data as given in patent US20040265323A1, “Compositions comprising pathogen elicited epithelial chemoattractant (eicosanoid hepoxilin A3), inhibitors thereof and methods of use thereof” (priority 2003, published 2004).
Several values for one entry are separate records, joined by “and”; a condition that tells them apart may be missing. Identical values can stand only once. Entries after “also recorded” stand apart in the source; their conditions may differ.

Key:
[1] = test system: PMN transmigration across T84 cell monolayers; assay: PMN transepithelial migration to imposed gradients of lipids across T84 monolayers; type: cell-based, human; conditions: for PMN transepithelial migration (PEEC activity) induced by added lipid: imposed gradients across T84 cell monolayers, basolateral-to-apical
Protocol: Crude preparations of PEEC were collected from the apical surface of polarized T84 cell monolayers following infection with S. typhimurium SL1344 as previously described (McCormick et al., 1998). For these experiments, T84 intestinal epithelial cells (passages 45 to 65) were grown in a 1:1 mixture of Dulbecco-Vogt modified Eagles medium and Ham's F-12 medium supplemented with 15 mM Hepes buffer (pH 7.5), 14 mM NaHCO3, 40 mg/liter penicillin, 8 mg/liter ampicillin, 90 mg/liter streptomycin and 5% newborn calf serum. Polarized monolayers of T84 cells were formed and maintained on 0.33 cm^2 ring-supported collagen-coated polycarbonate filters (Costar Corp., Cambridge, Mass.) as previously described (Madara et al., 1992) with recently detailed modifications (Dharmsathaphorn and Madara, 1990). T84 cell monolayers reached a steady-state resistance 4 to 6 days after plating with some variability largely related to cell passage number. Cell culture inserts of inverted monolayers, used to study transmigration of PMN in the physiological basolateral-to-apical direction, were constructed as previously described (Madara et al., 1992; Dharmsathaphorn and Madara, 1990; Nash et al., 1991).
(§1) It was further examined if hepoxilin A3 acts in a gradient fashion to drive PMN migration from the basolateral to the apical epithelial surface. For these experiments, the physiologically directed (basolateral-to-apical) PMN transepithelial migration assay using cell culture inserts of inverted T84 monolayers has been used (McCormick et al., 1993; Parkos et al., 1992). Human PMN were isolated from normal volunteers, as described elsewhere (Parkos et al., 1992; Henson and Oades, 1975). PMN transmigration results were represented as PMN cell equivalents (CE) derived from a daily standard PMN dilution curve. PMN which completely traversed the monolayer were represented as the number of PMN (CE/ml in a total volume of 1 ml). Values were expressed as the mean and SD of an individual experiment done in triplicate repeated at least 3 times.
Arachidonic acid is the initial substrate used by a variety of metabolic pathways involving lipoxygenase (LO) activities—enzymes that add hydroxyl groups at specific carbon atoms of this 20-carbon fatty acid. […] Therefore, in addition to hepoxilin A3, a wide range of arachidonic acid metabolites for their ability to incite the transmigration of PMNs across T84 monolayers in vitro was examined (Table 1). […] This is consistent with previous reports that LTB4 is capable of inducing PMN transmigration.

PMN [2] = assay: PMN intracellular Ca2+ mobilization; type: cell-based, human
Source text: Further, crude PEEC preparations were collected from postinfected T84 cells monolayers. Samples were first passed through an Amicon ultra-filtration apparatus (Millipore Corp.; Bedford, Mass.) fitted with a 2,000 Da cut-off membrane. Filtrate components were bound to a Backerbond spe™ octadecyl extraction column (J. T. Baker; Philipsburg, N.J.) that was subsequently eluted with water, hexane, and finally methanol. The methanol fraction was dried under vacuum and resuspended in 50:50 (vol:vol) methanol:2 mM Tris HCl (pH 7.5) and injected onto a Vydac C18 (10 μm; 300 Å) semi-preparative column ([…]) equilibrated with 2 mM Tris-HCl (pH 7.5). A methanol gradient of 1-10% over 10 minutes, then 10-60% over 25 minutes, followed by 60-100% over 45 minutes (all at room temperature) was used to isolate active PEEC fractions. Active fractions, having no detectable absorbance at 280 nm and weak absorbance at 214 nm, were analyzed using a Genesis C18 (4 μm, 120 Å) analytical HPLC column (4.6×150 mm) equilibrated with 5 mM triethylamine/acetic acid (pH 7.2). […] (FIG. 2A and B).
(§2) To substantiate the notion that hepoxilin A3 was in fact the molecule responsible for PEEC bioactivity, it was examined whether synthetic hepoxilin A3 (BIOMOL, Plymouth Meeting, Pa.) could recapitulate PEEC bioactivity. […] Thus, authentic hepoxilin A3 recapitulates all known aspects of PEEC bioactivity consistent with the notion that hepoxilin A3 is in fact PEEC's active component.

PMN [3] = assay: PMN degranulation assessed by elastase release; type: cell-based, human
Source text: as §2

[4] = test system: PMN transmigration across T84 cell monolayers; assay: Disruption of hepoxilin A3 gradient by basolateral addition, PMN transepithelial migration across T84 monolayers; type: cell-based, human; conditions: 5 μg/ml basolateral; migration induced by S. typhimurium, recombinant SipA or imposed gradients of hepoxilin A3
Source text: as §1
First, any potential gradient by adding excess synthetic hepoxilin A3 to the basolateral compartment was counteracted. […] The establishment of a hepoxilin A3 gradient was next measured quantitatively. […] Hepoxilin A3 decay in both compartments was exponential and the above stated T1/2 values were determined by analyzing the slope of a best-fit line to a log-linear analysis of each data set. […] Instead, the extent of recovery of hepoxilin A3 from the basolateral compartment following an apical application of 4500 pmoles was measured.

T84 monolayers [5] = assay: Hepoxilin A3 degradation in apical and basolateral compartments of T84 monolayers; type: in vitro ADME, human; conditions: for time to 50% loss of intact compound (T1/2), average: average of two experiments
Protocol: (§3) First, any potential gradient by adding excess synthetic hepoxilin A3 to the basolateral compartment was counteracted. […] The establishment of a hepoxilin A3 gradient was next measured quantitatively. […] Hepoxilin A3 decay in both compartments was exponential and the above stated T1/2 values were determined by analyzing the slope of a best-fit line to a log-linear analysis of each data set. Because of the complex degradation events occurring in both the apical and basolateral compartments, no attempt was made to calculate a transport rate. Instead, the extent of recovery of hepoxilin A3 from the basolateral compartment following an apical application of 4500 pmoles was measured.

T84 monolayers [6] = assay: Recovery of hepoxilin A3 in basolateral compartment after apical application to T84 monolayers; type: in vitro ADME, human; conditions: apical application of 4500 pmoles, over 90 minutes
Protocol: as §3

[7] = test system: P. aeruginosa-induced PMN transepithelial migration, A549 cells; assay: P. aeruginosa-induced PMN transepithelial migration across A549 cell monolayers; type: cell-based, human; conditions: excess hepoxilin A3 added to basolateral compartment; data not shown
Source text: It was further determined whether similar hepoxilin A3 recruitment of PMN by apically attached pathogens might occur at other mucosal surfaces. Pseudomonas aeruginosa is the most prominent bacterial spp. present during chronic infection in cystic fibrosis and chronic obstructive pulmonary disease patients and is accompanied by severe inflammation, including the emigration of PMN to the airway lumen (Pizurki et al., 2000; Jahn et al., 2000; Weiss, S. 1989). As a model for the airway epithelium the A549 cell line was used. This cell line is capable of forming a polarized barrier, and is widely employed as a model for the airway epithelial surface (Smart and Casale, 1994). […] Finally, the secretion of hepoxlin A3 in vitro was quantified using this A549 model system. For these experiments, A549 lung epithelial cells (ATTC) were grown in F12K media (Invitrogen) with 10% FBS, and maintained in culture similar to the T84 cell line. The wild type P. aeruginosa (PAO1) was used for infection of A549 after overnight aerobic growth (Luria broth) at 37° C.

[8] = Stability in acidified acetonitrile; type: physicochemical; conditions: overnight incubation in acid
Protocol: Molecules of the 5-LO, 8-LO, 12-LO and 15-LO pathways of arachadonic metabolism were analyzed by LC/MS breakdown patterns and compared to PEEC. […] Methylation of PEEC samples and hepoxilin A3 also provided similar ion spectra (data not shown). […] PEEC activity was also observed to have other chemical properties similar to hepoxilin A3, such as being labile in the presence of acetonitrile/0.1% trifluoroacetic acid (FIG. 3D).

CCCCC/C=C\C[C@@H]1O[C@H]1/C=C/C(O)C/C=C\CCCC(=O)O (some centres unmarked) [hepoxilin A3]
PMN transepithelial migration induced by imposed gradients ([1]; hepoxilin A3 0.5-5 μg/ml, FIG. 4A): induce PMN transepithelial migration in a dose dependent fashion | PMN transepithelial migration (PEEC activity) induced by added lipid [1]: induced transepithelial migration | PMN transepithelial migration (PEEC activity) induced by added lipid ([1]; listed as Hepoxilin A3): saturated response | PMN intracellular Ca2+ mobilization (PMN [2]): elicited an increase in [Ca^2+] in PMN | intracellular Ca2+ in PMN (PMN [2]; 5 μg/ml, FIG. 4B): increase in intracellular Ca^2+ | PMN degranulation (PMN [3]): did not induce PMN degranulation; also recorded: not observed | effect of basolateral addition on PMN transepithelial migration [4]: significantly diminished PMN transepithelial migration | time to 50% loss of intact compound (T1/2), single experiments (T84 monolayers [5]; apical chamber): 1.28 h and 1.45 h | time to 50% loss of intact compound (T1/2), average (T84 monolayers [5]; apical chamber of T84 monolayers): 1.37 h | time to 50% loss of intact compound (T1/2), single experiments (T84 monolayers [5]; basolateral compartment): 0.817 h and 0.625 h | time to 50% loss of intact compound (T1/2), average (T84 monolayers [5]; basolateral compartment of T84 monolayers): 0.717 h | amount of intact compound recovered from the basolateral compartment (T84 monolayers [6]): low but detectable amount and low | P. aeruginosa-induced PMN transepithelial migration with gradient disruption [7]: inhibited | stability in acetonitrile/0.1% trifluoroacetic acid [8]: labile
